Assay results published in ChEMBL document CHEMBL5532639, “Heterocyclic pyrimidine derivatives as promising antibacterial agents” (Eur J Med Chem, 2023).
Converted amounts (≈) assume the structure as drawn.

Legend:
Staphylococcus aureus [1] = assay: Antibacterial activity against Staphylococcus aureus assessed as reduction in bacterial growth incubated for 16 to 20 hrs by Mueller-Hinton broth based two-fold serial dilution method; type: functional; details: time 16-20 hrs
Streptococcus pyogenes [2] = assay: Antibacterial activity against Streptococcus pyogenes assessed as reduction in microbial growth incubated for 24 hrs by broth micro-dilution method; type: functional
Klebsiella pneumoniae = assay: Antibacterial activity against Klebsiella pneumoniae assessed as reduction in bacterial growth incubated for 16 to 20 hrs by Mueller-Hinton broth based two-fold serial dilution method; type: functional; details: time 16-20 hrs
Pseudomonas aeruginosa [3] = assay: Antibacterial activity against Pseudomonas aeruginosa assessed as reduction in bacterial growth incubated for 24 hrs by broth microdilution method; type: functional
Escherichia coli [4] = assay: Antibacterial activity against Escherichia coli assessed as reduction in bacterial growth incubated for 16 to 20 hrs by Mueller-Hinton broth based two-fold serial dilution method; type: functional; details: time 16-20 hrs
Escherichia coli [5] = assay: Antibacterial activity against Escherichia coli assessed as zone of inhibition at 50 microg/ml by cup plate analysis; type: functional; details: read-out: IZ
Bacillus pumilus = assay: Antibacterial activity against Bacillus pumilus assessed as zone of inhibition at 50 microg/ml by cup plate analysis; type: functional; details: read-out: IZ
Enterococcus raffinosus = assay: Antibacterial activity against Enterococcus raffinosus assessed as bacterial growth inhibition incubated for 24 hrs by CLSI protocol based Mueller-Hinton broth assay; type: functional
Salmonella typhimurium [6] = assay: Antibacterial activity against Salmonella typhimurium DT104 assessed as reduction in bacterial growth; type: functional, Salmonella enterica subsp. enterica serovar Typhimurium; details: Salmonella enterica
Staphylococcus aureus [7] = assay: Antibacterial activity against Staphylococcus aureus ATCC 3750 assessed as reduction in bacterial growth; type: functional
Bacillus subtilis [8] = assay: Antibacterial activity against Bacillus subtilis 6633 assessed as reduction in bacterial growth; type: functional
Proteus vulgaris = assay: Antibacterial activity against Proteus vulgaris assessed as zone of inhibition at 50 microg/ml by cup plate analysis; type: functional; details: read-out: IZ
Bacillus subtilis [9] = assay: Antibacterial activity against Bacillus subtilis assessed as zone of inhibition at 50 microg/ml by cup plate analysis; type: functional; details: read-out: IZ
Staphylococcus aureus [10] = assay: Antibacterial activity against Staphylococcus aureus assessed as bacterial growth inhibition incubated for 24 hrs by CLSI protocol based Mueller-Hinton broth assay; type: functional
Escherichia coli [11] = assay: Antibacterial activity against Escherichia coli ATCC 25922 assessed as bacterial growth inhibition; type: functional
Escherichia coli [12] = assay: microbe, parasite or virus in culture; details: ATCC 25922, 24 h
Description: Antibacterial activity against Escherichia coli ATCC 25922 assessed as reduction in bacterial growth measured after 24 hrs by Mueller-Hinton broth assay

Pseudomonas aeruginosa [13] = assay: Antibacterial activity against Pseudomonas aeruginosa ATCC 85327 assessed as reduction in bacterial growth measured after 24 hrs by Mueller-Hinton broth assay; type: functional
Escherichia coli [14] = assay: Antibacterial activity against Escherichia coli assessed as inhibition of microbial growth by broth micro-dilution method; type: functional
Bacillus subtilis [15] = assay: Antibacterial activity against Bacillus subtilis ATCC 465 assessed as reduction in bacterial growth measured after 24 hrs by Mueller-Hinton broth assay; type: functional
Staphylococcus aureus [16] = assay: Antibacterial activity against Staphylococcus aureus assessed as bacterial growth inhibition by measuring zone of inhibition at 50 ug/ml by agar cup diffusion assay; type: functional; details: read-out: IZ
Staphylococcus aureus [17] = assay: Antibacterial activity against Staphylococcus aureus assessed as inhibition of microbial growth by broth micro-dilution method; type: functional
Bacillus subtilis [18] = assay: Antibacterial activity against Bacillus subtilis assessed as bacterial growth inhibition by measuring zone of inhibition at 50 ug/ml by agar cup diffusion assay; type: functional; details: read-out: IZ
Escherichia coli [19] = assay: Antibacterial activity against Escherichia coli assessed as bacterial growth inhibition by measuring zone of inhibition at 50 ug/ml by agar cup diffusion assay; type: functional; details: read-out: IZ
Streptococcus pyogenes [20] = assay: Antibacterial activity against Streptococcus pyogenes assessed as inhibition of microbial growth by broth micro-dilution method; type: functional
Staphylococcus aureus [21] = assay: microbe, parasite or virus in culture; details: ATCC 25923, 24 h
Description: Antibacterial activity against Staphylococcus aureus ATCC 25923 assessed as reduction in bacterial growth measured after 24 hrs by Mueller-Hinton broth assay

Salmonella typhimurium [22] = assay: Antibacterial activity against Salmonella typhimurium DT104 assessed as bacterial growth inhibition by measuring zone of inhibition at 50 ug/ml by agar cup diffusion assay; type: functional, Salmonella enterica subsp. enterica serovar Typhimurium; details: Salmonella enterica, read-out: IZ
Pseudomonas aeruginosa [23] = assay: Antibacterial activity against Pseudomonas aeruginosa assessed as inhibition of microbial growth by broth micro-dilution method; type: functional
[24] = test system: Corynebacterium glutamicum; assay: Antibacterial activity against Corynebacterium glutamicum; type: functional
Corynebacterium sp. = assay: Antibacterial activity against Corynebacterium sp.; type: functional
[25] = test system: Staphylococcus epidermidis; assay: Antibacterial activity against Staphylococcus epidermidis assessed as reduction in microbial growth after 24 hrs by CLSI based microdilution method; type: functional
Micrococcus luteus [26] = assay: Antibacterial activity against Micrococcus luteus assessed as bacterial growth inhibition by paper disc diffusion assay; type: functional
Micrococcus sp. = assay: Antibacterial activity against Micrococcus sp.; type: functional
Corynebacterium xerosis = assay: Antibacterial activity against Corynebacterium xerosis; type: functional
Moraxella catarrhalis = assay: Antibacterial activity against Moraxella catarrhalis assessed as reduction in bacterial growth by broth microdilution method; type: functional
Staphylococcus hominis = assay: Antibacterial activity against Staphylococcus hominis; type: functional
Staphylococcus xylosus = assay: Antibacterial activity against Staphylococcus xylosus assessed as reduction in bacterial growth; type: functional
Acinetobacter sp. = assay: Antibacterial activity against Acinetobacter sp.; type: functional
Micrococcus luteus [27] = assay: Antibacterial activity against Micrococcus luteus assessed as reduction in microbial growth; type: functional
Staphylococcus cohnii = assay: Antibacterial activity against Staphylococcus cohnii; type: functional
[28] = test system: Arcanobacterium haemolyticum; assay: Antibacterial activity against Arcanobacterium haemolyticum; type: functional
Alcaligenes faecalis = assay: Antibacterial activity against Alcaligenes faecalis; type: functional
[29] = test system: Staphylococcus epidermidis; assay: Antibacterial activity against Staphylococcus epidermidis assessed as reduction in bacterial growth measured after 24 hrs by broth microdilution method; type: functional
[30] = test system: Staphylococcus haemolyticus; assay: Antibacterial activity against Staphylococcus haemolyticus clinical isolates assessed as bacterial growth inhibition measured after 16 to 24 hrs by broth microdilution assay; type: functional; details: time 16-24 hrs
[31] = test system: Corynebacterium glutamicum; assay: Antibacterial activity against Corynebacterium glutamicum ATCC 13032 cultured in MHB medium assessed as no bacterial growth incubated at 20 degC for 24 hrs by microdilution susceptibility test; type: functional

SMILES: Nc1c(-c2nc3ccccc3s2)c(-c2ccc(Cl)cc2)nc2nc(N/N=C/c3cccc(Cl)c3)[nH]c(=O)c12
- MIC (Staphylococcus aureus [1]): 25 µg/mL (≈ 44.8 µM)
- MIC (Streptococcus pyogenes [2]): 25 µg/mL
- MIC (Klebsiella pneumoniae): 50 µg/mL (≈ 89.5 µM)
- MIC (Pseudomonas aeruginosa [3]): 50 µg/mL (≈ 89.5 µM)
- MIC (Escherichia coli [4]): 25 µg/mL (≈ 44.8 µM)

SMILES: CC1(C)S[C@@H]2[C@H](NC(=O)Cc3ccccc3)C(=O)N2[C@H]1C(=O)O [PENICILLIN G]
- zone of inhibition at 50 µg/mL (Escherichia coli [5]): 26 mm
- zone of inhibition at 50 µg/mL (Bacillus pumilus): 29 mm
- MIC (Enterococcus raffinosus): 93.5 µg/mL (≈ 280 µM)
- MIC (Salmonella typhimurium [6]): 5 µg/mL (≈ 15 µM)
- MIC (Staphylococcus aureus [7]): 6 µg/mL (≈ 17.9 µM)
- MIC (Bacillus subtilis [8]): 22 µg/mL (≈ 65.8 µM)
- zone of inhibition at 50 µg/mL (Proteus vulgaris): 28 mm
- zone of inhibition at 50 µg/mL (Bacillus subtilis [9]): 25 mm
- MIC (Staphylococcus aureus [10]): 24.4 µg/mL (≈ 73 µM)
- MIC (Escherichia coli [11]): 5 µg/mL (≈ 15 µM)

SMILES: O=C(N[C@H](CO)[C@H](O)c1ccc([N+](=O)[O-])cc1)C(Cl)Cl [CHLORAMPHENICOL]
- MIC (Escherichia coli [12]): 4 µg/mL (≈ 12.4 µM)
- MIC (Pseudomonas aeruginosa [13]): 256 µg/mL (≈ 792 µM)
- MIC (Escherichia coli [14]): 50 µg/mL
- MIC (Bacillus subtilis [15]): 4 µg/mL (≈ 12.4 µM)
- MIC (Salmonella typhimurium [6]): 6 µg/mL (≈ 18.6 µM)
- MIC (Staphylococcus aureus [7]): 5 µg/mL (≈ 15.5 µM)
- MIC (Bacillus subtilis [8]): 6 µg/mL (≈ 18.6 µM)
- zone of inhibition at 50 µg/mL (Staphylococcus aureus [16]): 25 mm
- MIC (Staphylococcus aureus [17]): 50 µg/mL
- zone of inhibition at 50 µg/mL (Bacillus subtilis [18]): 20 mm
- zone of inhibition at 50 µg/mL (Escherichia coli [19]): 18 mm
- MIC (Streptococcus pyogenes [20]): 50 µg/mL
- MIC (Staphylococcus aureus [21]): 8 µg/mL (≈ 24.8 µM)
- zone of inhibition at 50 µg/mL (Salmonella typhimurium [22]): 24 mm
- MIC (Escherichia coli [11]): 4 µg/mL (≈ 12.4 µM)
- MIC (Pseudomonas aeruginosa [23]): 50 µg/mL

SMILES: CN(C)c1ccc(-c2cc(-c3ccsc3)nc(N)n2)cc1
- zone of inhibition at 50 µg/mL (Escherichia coli [5]): 11 mm
- zone of inhibition at 50 µg/mL (Bacillus pumilus): 12 mm
- zone of inhibition at 50 µg/mL (Proteus vulgaris): 12 mm
- zone of inhibition at 50 µg/mL (Bacillus subtilis [9]): 15 mm

SMILES: Nc1nc(Cl)c(C(Cc2ccccc2)c2ccc(Cl)cc2)c(Cl)n1 (configuration not stated)
- MIC [24]: 100 µg/mL (≈ 264 µM)
- MIC (Corynebacterium sp.): 100 µg/mL (≈ 264 µM)
- MIC [25]: 100 µg/mL
- MIC (Micrococcus luteus [26]): 100 µg/mL (≈ 264 µM)
- MIC (Micrococcus sp.): 100 µg/mL (≈ 264 µM)
- MIC (Corynebacterium xerosis): 30 µg/mL (≈ 79.2 µM)
- MIC (Moraxella catarrhalis): 500 µg/mL (≈ 1320 µM)
- MIC (Staphylococcus hominis): 100 µg/mL (≈ 264 µM)
- MIC (Staphylococcus xylosus): 100 µg/mL (≈ 264 µM)
- MIC (Acinetobacter sp.): > 500 µg/mL
- MIC (Micrococcus luteus [27]): 100 µg/mL
- MIC (Staphylococcus cohnii): 100 µg/mL (≈ 264 µM)
- MIC [28]: 10 µg/mL (≈ 26.4 µM)
- MIC (Alcaligenes faecalis): > 500 µg/mL
- MIC [29]: 100 µg/mL (≈ 264 µM)
- MIC [30]: 100 µg/mL (≈ 264 µM)
- MIC [31]: 100 µg/mL (≈ 264 µM)

SMILES: Nc1cccc(/C=N/Nc2nc3nc(-c4ccc(Cl)cc4)c(-c4nc5ccccc5s4)c(N)c3c(=O)[nH]2)c1
- MIC (Staphylococcus aureus [1]): 25 µg/mL (≈ 46.4 µM)
- MIC (Streptococcus pyogenes [2]): 12.5 µg/mL
- MIC (Klebsiella pneumoniae): 12.5 µg/mL (≈ 23.2 µM)
- MIC (Pseudomonas aeruginosa [3]): 25 µg/mL (≈ 46.4 µM)
- MIC (Escherichia coli [4]): 12.5 µg/mL (≈ 23.2 µM)
